Tests used:
ST1799/HI/PBR PDX = assay: Efficacy in palbociclib-resistant ST1799/HI/PBR PDX model; assay type: in vivo, mice; details: camizestrant 10 mg/kg daily, palbociclib 50 mg/kg, abemaciclib 50 mg/kg, capivasertib 130 mg/kg, 40 days
Method: For all PDX models, tumors were measured twice weekly; changes in tumor volume and growth inhibition were determined by bilateral Vernier caliper measurement (length x width). Length was the longest diameter across the tumor and width the corresponding perpendicular.
For efficacy studies, animals were randomized into treatment groups and dosing started once tumor volume reached 150–300 mm^3. Details of efficacy studies, and group sizes and treatments are described in corresponding figure legends. PDX models in Fig. 6 and Supplementary Fig. S1 were part of the multi-arm study (with arms irrelevant to this publication) with common control monotherapy arms (e.g., the vehicle-treated group).
(TV) was calculated using the formula: TV (mm3) = (3.142 x max (length:width) x min […]
established tumors were removed from two donor mice and dissected into 3x3x3 mm pieces in RPMI 1640 media. […] TV was calculated as TV (mm3) = width2 x length x 0.52.
For the combination studies in the CTC174 PDX model (hormone-independent), established tumors were removed from donor mice and dissected into 3x3x3 mm pieces in RPMI 1640 media. […] TV was calculated using the formula: TV (mm3) = (3.142 x max (length:width) x min (length:width) x min (length:width))/6,000, or (mm3) = width2 x length x 0.52 for the CTC174 study. […]

[1] = system: ER transcriptional activity; assay: RNA-seq ER-regulated gene expression in MCF7 and CAMA-1 cells; assay type: cell-based, human; details: 100 nmol/L + 1 nmol/L estradiol, 24 hours
Method: MCF7 and CAMA-1 cells were seeded into 6-well microplates in phenol red-free RPMI-1640 medium (Invitrogen) containing 2 mmol/L L-glutamine and 5% (volume/volume, v/v) charcoal-stripped FBS (Sigma). […] Samples were harvested in 1 mL of QIAzol lysis buffer and snap-frozen. Snap-frozen tissue from PDX studies was homogenized and resuspended in QIAzol lysis buffer. RNA was extracted using RNeasy 96 QIAcube HT total RNA Cell with DNAse treatment, and samples randomized over 96-well plates. RNA was quantified using the Qubit RNA BR kit (Q10213 Invitrogen), per the manufacturer's instructions.
[…], RNA integrity was analyzed on a TapeStation 4200 using the RNA 6000 Nano Kit (5067 1511, Agilent), according to the manufacturers’ instructions. The Illumina Truseq stranded mRNA library was generated by the Cancer Research UK Cambridge Institute Genomic core facility, and sequencing of cell lines was performed on the Illumina Hiseq4000 platform, providing single-end 50 base pair reads and around 20 million reads per sample. PDX samples were sequenced using Illumina NovaSeq600, providing paired-end 100 base pair reads and around 34 million reads per sample.
Quality control and gene expression quantification of RNA sequencing (RNA-seq) were performed using the RNA-seq pipeline implemented in bcbio-nextgen (https://bcbio-nextgen.readthedocs.org/en/latest/). Reads were aligned to the University of California (Santa Cruz, CA) Homo sapiens GRCh38 genome build, augmented with transcript information from Ensembl release 86 using HiSat2 ([31]). Alignments were evaluated for evenness of coverage, ribosomal RNA content, genomic context of alignments, and complexity, using a combination of FastQC, Qualimap, and custom computational tools ([32]). Transcripts per million measurements per isoform were generated by quasi-alignment using Salmon and were used to estimate the abundance of genes ([33]). The aggregated gene counts were used for differential gene expression analyses using DESeq2 ([34]).

CAMA-1 cells = assay: Sytox Green proliferation assay, CAMA-1; assay type: cell-based, human; details: 7-day proliferation
Method: MCF7 and CAMA-1 cells were seeded into 96-well microplates in phenol red-free RPMI-1640 medium containing 2 mmol/L L-glutamine and 5% (v/v) charcoal-stripped FBS at 4×10^3 and 8×10^3 cells/well, based on the doubling time of each cell line. Plates were incubated for 24 hours (37°C; 5% CO2) and a 10-point concentration range of selected compounds was dispensed onto the cells. Dimethyl sulfoxide (DMSO) was dispensed into control wells to give a 0.1% final concentration. One plate was untreated, as a day 0 control. […] were counted at days 0 and 7 (or day 6 for Y537S ESR1m MCF7 cells) using Sytox Green nucleic assay stain (180 nmol/L per well). Green (dead) cells were counted at days 0 and 7 using an Acumen Explorer (TTP Labtech) or Cellinsight imager (Thermo Fisher Scientific). Saponin 0.045% (weight/volume) was added to permeabilize the cells overnight, permitting total cell count. The number of live cells was calculated by subtracting dead cells from the total cell count, and curve-fitted using GraphPad Prism. Average cell counts from the day 0 plate were used to determine 0% cell growth. A dose–response curve was plotted using non-linear regression to determine the IC50 and bottom-of-curve values. Viability assay methods are described in Supplementary Methods.

[2] = biological target: T1, ER in Ishikawa endometrial cancer cell line (Homo sapiens, UniProt P03372); assay: ER degradation and agonism (PgR expression) in Ishikawa cells; assay type: cell-based
T1 sequence (P03372 1-595): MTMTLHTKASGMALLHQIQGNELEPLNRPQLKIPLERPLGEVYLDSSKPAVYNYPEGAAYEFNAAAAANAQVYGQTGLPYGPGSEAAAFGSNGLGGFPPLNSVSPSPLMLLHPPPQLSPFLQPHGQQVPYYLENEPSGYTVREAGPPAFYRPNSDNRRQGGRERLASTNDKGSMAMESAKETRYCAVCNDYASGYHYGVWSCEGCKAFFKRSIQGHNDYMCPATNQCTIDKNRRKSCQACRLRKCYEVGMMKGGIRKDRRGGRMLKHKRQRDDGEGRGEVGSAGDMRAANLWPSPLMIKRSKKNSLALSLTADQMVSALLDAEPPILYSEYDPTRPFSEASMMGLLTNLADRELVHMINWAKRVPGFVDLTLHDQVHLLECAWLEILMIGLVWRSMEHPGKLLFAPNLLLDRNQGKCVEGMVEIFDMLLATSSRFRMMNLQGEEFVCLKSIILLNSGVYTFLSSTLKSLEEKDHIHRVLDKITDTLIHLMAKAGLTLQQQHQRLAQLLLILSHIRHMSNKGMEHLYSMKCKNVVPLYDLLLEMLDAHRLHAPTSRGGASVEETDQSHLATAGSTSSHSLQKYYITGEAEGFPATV
Method: Cells were seeded into 12-well tissue culture-treated plates (0.5×10^6 cells/well) in phenol red-free RPMI medium containing 5% (v/v) charcoal-stripped FBS.
Cell lysates were loaded on NuPAGE 4% to 12% Bis-Tris Midi Protein Gels, transferred to nitrocellulose membranes and immunoblotted with anti-ER antibody (clone SP1, Thermo Fisher Scientific). To detect ER agonism, Ishikawa cells were incubated in media containing 5% (v/v) double charcoal-stripped FBS, achieved by stripping FBS using activated charcoal (C9157, Sigma). Blots were probed with anti-PgR antibody (clone 636, Dako) then horseradish peroxidase secondary antibody (anti-mouse, 7076 Cell Signaling Technology or anti-rabbit, 7070 Cell Signaling Technology). Protein levels were measured on the G-box using Pierce West Dura and West Femto chemiluminescent reagents and Syngene software.

ST3632 ESR1wt PDX = assay: Efficacy in ST3632 PDX model; assay type: in vivo, mice; details: oral camizestrant 10 mg/kg daily, palbociclib 50 mg/kg daily, abemaciclib 50 mg/kg daily
[3] = system: MCF7 palbociclib-resistant cell lines (PC1, PC6, PC8); assay: Cell Titer Glo viability in palbociclib-resistant MCF7 lines; assay type: cell-based, human; details: 7 days
Method: B) Viability of CTC174 PDX-derived […]
organoids treated with the indicated drugs for 144 hours. Mean ± standard error of the mean (one experiment using six independent CTC174 organoid lines in three technical replicates). P values were calculated using two-tailed paired t tests of biological replicates. C) Immunoblots of CTC174 PDX tumors and quantification of ER, pS6, S6, or PCNA following treatment. Mean ± standard deviation (n=5). p values were calculated using ANOVA tests. D) Genetic backgrounds for cell lines with putative mechanism of resistance to palbociclib indicated for each cell line. Combination matrix plots […]
palbociclib or abemaciclib at indicated doses for 7 days using Cell Titer Glo viability assay. Values represent measured cell viability normalized to Day 0 (treatment day) and dimethyl sulfoxide control at Day 7. […]
protein levels measured by western blot. […]
dependent kinase 4/6 (inhibitor); Ctrl, control; del, deletion; ER, estrogen receptor; ESR1, estrogen receptor 1 gene; Everol, everolimus; MCL1, induced myeloid leukemia cell differentiation protein; mut, mutation; nd, not determined; Palbo, palbociclib; PCNA, proliferating cell nuclear antigen; PDX, patient-derived xenograft; PgR, progesterone receptor; PIK3CA, phosphatidylinositol 3-kinase subunit α; Rb, retinoblastoma; S6, Ribosomal protein S6; veh, vehicle; wt, wild-type […]
An untreated plate was read on […]

For NC1(C(=O)N[C@@H](CCO)c2ccc(Cl)cc2)CCN(c2nc[nH]c3nccc2-3)CC1 [capivasertib, reference compound], the tumor growth (ST1799/HI/PBR PDX) was “could not completely arrest tumor growth”.

C[C@@H]1Cc2c([nH]c3ccccc23)[C@@H](c2c(F)cc(/C=C/C(=O)O)cc2F)N1CC(C)(C)F [AZD9496] was tested, and the “estradiol-driven gene expression (ER transcriptional activity)” value [1] was “antagonized all estradiol-driven gene expression”, the cell growth inhibition (CAMA-1 cells) was “weaker antiproliferative effects” and the “ER agonism (PgR expression as a marker)” value [2] was “evident in endometrial in vitro and in vivo models”.

CC(=O)c1c(C)c2cnc(Nc3ccc(N4CCNCC4)cn3)nc2n(C2CCCC2)c1=O [palbociclib] was tested, and the “reduction of relative TV compared with the vehicle” value (ST3632 ESR1wt PDX) was 0%.

With CCN1CCN(Cc2ccc(Nc3ncc(F)c(-c4cc(F)c5nc(C)n(C(C)C)c5c4)n3)nc2)CC1 [abemaciclib, reference compound] the “reduction of relative TV compared with the vehicle” value (ST3632 ESR1wt PDX) was 46% and the “sensitivity of palbociclib-resistant lines” value [3] was “sensitive”.

Reference: article PMC10690091 (Cancer Research, 2023)
